Assay results reported in ChEMBL document CHEMBL3045145, “Synthesis, characterization and their anticonvulsant, anti-inflammatory studies of some novel chromeno oxadiazoles” (2013).

Experiments:
Assay type in all cases: functional
Rattus norvegicus [1] = experiment: Anti-inflammatory activity in Rattus norvegicus Wistar (rat) assessed as inhibition of carrageenan-induced paw edema at 20 mg/kg, ip administered 30 min post carrageenan-challenge measured after 3 hr relative to control; details: route intraperitoneal
Mus musculus [2] = experiment: Anticonvulsant activity in Mus musculus albino (mouse) assessed as time of onset of PTZ-induced clonic convulsion at 25 mg/kg, po administered 30 min prior to PTZ-challenge (reference value: 61 secs)
Mus musculus [3] = experiment: Anticonvulsant activity in Mus musculus albino (mouse) assessed as protection against PTZ-induced clonic convulsion at 25 mg/kg, po administered 30 min prior to PTZ-challenge relative to control
Rattus norvegicus [4] = experiment: Anti-inflammatory activity in Rattus norvegicus Wistar (rat) assessed as inhibition of carrageenan-induced paw edema at 10 mg/kg, ip administered 30 min post carrageenan-challenge measured after 3 hr relative to control; details: route intraperitoneal

Compound | inhibition in vivo at 20 mg/kg (Rattus norvegicus [1]) [%] | Time (Mus musculus [2]) [s] | Activity (Mus musculus [3]) [%] | inhibition in vivo at 10 mg/kg (Rattus norvegicus [4]) [%]
O=[N+]([O-])c1cccc(/C=N/C2Oc3ccccc3CC2c2noc(-c3cccc([N+](=O)[O-])c3)n2)c1 (stereo not given) | 40.9 | 60 | 100 | –
Fc1ccc(Br)cc1/C=N/C1Oc2ccccc2CC1c1noc(-c2cc(Br)ccc2F)n1 (stereo not given) | – | 128 | 66.6 | –
COc1cc(/C=N/C2Oc3ccccc3CC2c2noc(-c3ccc(O)c(OC)c3)n2)ccc1O (stereo not given) | 42.5 | 80 | 66.6 | –
Brc1ccc(/C=N/C2Oc3ccccc3CC2c2noc(-c3ccc(Br)cc3)n2)cc1 (stereo not given) | – | 104 | 100 | –
C(=N\C1Oc2ccccc2CC1c1noc(-c2nccs2)n1)/c1nccs1 (stereo not given) | 17.3 | 201 | 100 | –
Fc1ccc(/C=N/C2Oc3ccccc3CC2c2noc(-c3ccc(F)c(Oc4ccccc4)c3)n2)cc1Oc1ccccc1 (stereo not given) | 37 | – | – | –
Clc1ccccc1/C=N/C1Oc2ccccc2CC1c1noc(-c2ccccc2Cl)n1 (stereo not given) | 37 | 226 | 100 | –
Clc1ccc(/C=N/C2Oc3ccccc3CC2c2noc(-c3ccc(Cl)cc3)n2)cc1 (stereo not given) | 26.8 | 218 | 100 | –
Oc1ccccc1/C=N/C1Oc2ccccc2CC1c1noc(-c2ccccc2O)n1 (stereo not given) | 27.5 | 325 | 100 | –
COc1ccc(/C=N/C2Oc3ccccc3CC2c2noc(-c3ccc(OC)c(OC)c3)n2)cc1OC (stereo not given) | 31.5 | 158 | 100 | –
Fc1ccc(/C=N/C2Oc3ccccc3CC2c2noc(-c3ccc(F)cc3)n2)cc1 (stereo not given) | – | 101 | 100 | –
C(/C=C/c1ccccc1)=N/C1Oc2ccccc2CC1c1noc(/C=C/c2ccccc2)n1 (stereo not given) | 23.6 | – | – | –
O=C(O)Cc1ccccc1Nc1c(Cl)cccc1Cl [DICLOFENAC] | – | – | – | 80.4
